The values below come from patent US8173813B2, “Quinolone and tetrahydroquinolone and related compounds having NOS inhibitory activity” (NeurAxon, Inc., priority 2007, dated 2012).

Read-outs that look alike come from different tables or passages of the source. Bounds are passed on as bounds.

Assay [1] deals with patients with cardiogenic shock. Particulars: randomized trial of 30 patients; reduced from 67%; cited from earlier work.
Assay [2] concerns migraine patients. Particulars: human migraine; open pilot study; cited from earlier work.
In assay [3] the test system is Male, Sprague Dawley rats. The experiment in a line: Porreca model of allodynia (inflammatory soup onto the dura, hindpaw von Frey). It counts as in vivo, rat.
The subject of assay [4] is migraine patients. Particulars: human migraine; single i.v. administration; cited from earlier work.
The subject of assay [5] is patients with persistent shock. Particulars: 11 patients with persistent shock; up to 30 days; cited from earlier work.
Assay [6] addresses Nitric oxide synthase (neuronal, human recombinant) nNOS (Homo sapiens, UniProt P29475). Description: Human nNOS enzyme assay ([3H]L-arginine to [3H]L-citrulline). Type of assay: biochemical. Particulars: for IC50: read-out: hnNOS IC50.
The target of assay [7] is Nitric oxide synthase (endothelial, human recombinant) eNOS (Homo sapiens, UniProt P29474). The experiment in a line: Human eNOS enzyme assay ([3H]L-arginine to [3H]L-citrulline). It counts as biochemical. Particulars: read-out: heNOS IC50.
Nitric oxide synthase (endothelial, human recombinant) eNOS, sequence (P29474 2-1203): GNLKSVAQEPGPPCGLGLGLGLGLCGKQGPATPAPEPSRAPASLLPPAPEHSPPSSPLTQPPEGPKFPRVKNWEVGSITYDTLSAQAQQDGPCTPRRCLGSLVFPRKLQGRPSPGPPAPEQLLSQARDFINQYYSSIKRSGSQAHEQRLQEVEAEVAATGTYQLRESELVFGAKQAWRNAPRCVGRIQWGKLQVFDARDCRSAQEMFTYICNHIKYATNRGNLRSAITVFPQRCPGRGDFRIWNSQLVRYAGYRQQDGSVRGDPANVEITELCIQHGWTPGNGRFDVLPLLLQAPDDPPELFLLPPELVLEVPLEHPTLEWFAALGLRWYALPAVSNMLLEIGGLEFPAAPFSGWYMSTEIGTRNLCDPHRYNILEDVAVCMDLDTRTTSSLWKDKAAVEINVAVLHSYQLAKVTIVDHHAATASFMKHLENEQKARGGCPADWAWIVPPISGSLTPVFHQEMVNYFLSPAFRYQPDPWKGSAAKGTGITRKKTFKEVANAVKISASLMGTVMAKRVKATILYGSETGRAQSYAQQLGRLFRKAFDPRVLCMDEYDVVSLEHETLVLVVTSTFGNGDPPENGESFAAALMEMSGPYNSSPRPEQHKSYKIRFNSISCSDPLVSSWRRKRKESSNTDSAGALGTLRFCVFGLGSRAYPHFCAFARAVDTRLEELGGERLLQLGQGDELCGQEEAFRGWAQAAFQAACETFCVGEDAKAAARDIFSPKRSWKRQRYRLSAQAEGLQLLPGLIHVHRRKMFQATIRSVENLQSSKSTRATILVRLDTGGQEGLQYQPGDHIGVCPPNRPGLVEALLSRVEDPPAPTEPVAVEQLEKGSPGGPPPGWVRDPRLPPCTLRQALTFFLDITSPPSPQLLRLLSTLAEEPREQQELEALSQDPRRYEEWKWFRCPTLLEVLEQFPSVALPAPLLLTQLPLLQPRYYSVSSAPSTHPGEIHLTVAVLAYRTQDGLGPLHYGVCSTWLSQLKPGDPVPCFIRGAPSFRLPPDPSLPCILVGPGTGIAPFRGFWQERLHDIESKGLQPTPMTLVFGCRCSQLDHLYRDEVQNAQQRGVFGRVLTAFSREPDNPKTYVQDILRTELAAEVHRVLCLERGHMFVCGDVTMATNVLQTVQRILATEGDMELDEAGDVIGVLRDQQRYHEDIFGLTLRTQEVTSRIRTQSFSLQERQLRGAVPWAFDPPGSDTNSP
Assay [8] has as its target Recombinant human inducible NOS (iNOS) (Homo sapiens, UniProt P35228). Description: Human iNOS enzyme assay, radiometric. The note with it: read-out: hiNOS IC50. Type of assay: biochemical.
The next assay addresses nNOS (Rat) (Rattus norvegicus, UniProt P29476). The experiment in a line: nNOS (Rat) enzyme assay. It counts as biochemical. The note with it: values in parentheses. As to the method:
nNOS (Rat), eNOS (Rat) and iNOS (Mouse) Enzyme Assay Recombinant rat or mouse NO synthases (iNOS, eNOS, nNOS) were expressed in Sf9 cells (Sigma), 36 mg prot/ml (Bradford). […] Inhibition of NOS was determined by measuring the formation of L-[3H] citrulline from L-[3H] arginine. […] Stop buffer:100 mM Hepes, pH 5.5, 3 mM EDTA, 3 mM EGTA.

In a further assay the target is eNOS (Rat) (Rattus norvegicus, UniProt Q62600). Description: eNOS (Rat) enzyme assay. Type of assay: biochemical. The note with it: values in parentheses, read-out: eNOS IC50 (rodent data in parentheses).
eNOS (Rat), sequence (Q62600 2-1202): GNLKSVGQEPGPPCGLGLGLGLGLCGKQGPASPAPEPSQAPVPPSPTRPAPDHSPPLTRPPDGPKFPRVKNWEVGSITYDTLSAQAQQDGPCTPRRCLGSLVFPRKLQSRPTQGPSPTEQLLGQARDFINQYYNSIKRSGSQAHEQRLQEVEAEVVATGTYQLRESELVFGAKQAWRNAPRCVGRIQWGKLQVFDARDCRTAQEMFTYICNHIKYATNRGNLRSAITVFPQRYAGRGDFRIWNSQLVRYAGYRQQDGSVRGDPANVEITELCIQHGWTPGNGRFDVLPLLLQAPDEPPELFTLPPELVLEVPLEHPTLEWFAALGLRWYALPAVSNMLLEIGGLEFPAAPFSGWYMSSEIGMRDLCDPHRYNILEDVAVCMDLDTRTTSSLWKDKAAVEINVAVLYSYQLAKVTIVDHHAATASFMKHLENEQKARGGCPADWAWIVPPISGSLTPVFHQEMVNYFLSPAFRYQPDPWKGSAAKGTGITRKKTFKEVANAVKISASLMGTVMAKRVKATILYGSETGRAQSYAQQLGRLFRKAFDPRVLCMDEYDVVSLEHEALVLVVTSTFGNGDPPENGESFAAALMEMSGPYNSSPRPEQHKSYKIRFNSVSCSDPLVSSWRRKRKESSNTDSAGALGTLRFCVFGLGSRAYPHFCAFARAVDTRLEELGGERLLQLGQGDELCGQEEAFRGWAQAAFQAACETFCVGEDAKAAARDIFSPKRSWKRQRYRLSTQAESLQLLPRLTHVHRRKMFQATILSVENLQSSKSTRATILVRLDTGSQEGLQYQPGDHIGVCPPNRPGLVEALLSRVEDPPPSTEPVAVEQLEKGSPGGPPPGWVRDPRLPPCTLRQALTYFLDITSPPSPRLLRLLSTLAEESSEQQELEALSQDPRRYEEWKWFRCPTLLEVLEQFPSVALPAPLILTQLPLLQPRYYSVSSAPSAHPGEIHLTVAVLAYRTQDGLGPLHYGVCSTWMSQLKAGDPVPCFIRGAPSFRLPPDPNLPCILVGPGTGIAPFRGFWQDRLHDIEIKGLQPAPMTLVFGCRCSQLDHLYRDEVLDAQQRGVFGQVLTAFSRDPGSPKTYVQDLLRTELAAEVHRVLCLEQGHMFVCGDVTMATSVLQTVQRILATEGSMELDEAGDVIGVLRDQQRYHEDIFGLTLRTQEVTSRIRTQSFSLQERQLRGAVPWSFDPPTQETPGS
Another assay deals with iNOS (Mouse) (Mus musculus, UniProt P29477). The experiment in a line: iNOS (Mouse) enzyme assay. Type of assay: biochemical. Particulars: values in parentheses, read-out: iNOS IC50 (rodent data in parentheses). As to the method:
nNOS (Rat), eNOS (Rat) and iNOS (Mouse) Enzyme Assay Recombinant rat or mouse NO synthases (iNOS, eNOS, nNOS) were expressed in Sf9 cells (Sigma), 36 mg prot/ml (Bradford). […] Inhibition of NOS was determined by measuring the formation of L-[3H] citrulline from L-[3H] arginine. […] Stop buffer:100 mM Hepes, pH 5.5, 3 mM EDTA, 3 mM EGTA. Enzyme and inhibitor were pre-incubated for 35 min in the presence of NADPH before addition of arginine to initiate the reaction.

For assay [9], the system named is Rats with L5/L6 spinal nerve ligation. Description: Chung Spinal Nerve Ligation model, thermal hyperalgesia. Particulars: standard dosings 3, 10, and 30 mg/kg injected IP. Type of assay: in vivo, rat.
Assay [10] has as its system sciatic nerve cuff-implanted rats. The experiment in a line: Sciatic Nerve Cuff model, mechanical allodynia (von Frey hair). It counts as in vivo, rat. Particulars: i.p 30 mg/kg. As to the method:
The Sciatic Nerve Cuff model in rats (Mosconi and Kruger, 1996, Pain 64, 37-57) involves implantation of a plastic cuff around the sciatic nerve that results in painful neuropathy several days after surgery and induction of nociceptive afterdischarge in spinal neurons after innocuous peripheral mechanical stimulation (G. M. Pitcher and J. L. Henry). Mechanical allodynia is measured in the ipsilateral paw using calibrated von Frey hair testing. A single acute application of the drug (i.p. dosing) reverses the post-cuff pain thresholds to mechanical stimulus towards normal threshold levels.
The study utilized a cuff model (Mosconi T, Kruger L. Fixed-diameter polyethylene cuffs applied to the rat sciatic nerve induce a painful neuropathy: ultrastructural morphometric analysis of axonal alterations. Pain 64: 37-57, 1996) to examine the therapeutic effectiveness of the test compound 11 on a battery of behavioural endpoints in rats.
The testing chamber consists of a 30×30×30 cm Plexiglas box with a clear Plexiglas floor. This floor contained 0.5 cm diameter holes that are spaced 1.5 cm apart, and is positioned over a mirror, which allows an unobstructed view of the rat paws. Animals are placed in the testing chamber and allowed to acclimatize for 30 min prior to testing. von Frey filaments (Stoelting Co., Illinois, USA) are applied to the soft tissue of the plantar surface of the hind paw to determine the withdrawal threshold. The first filament applied corresponds to a force of 4.31 grams. […] A 50% response threshold is calculated according to the response pattern observed (described by Chaplan et al. 1994). […]
A baseline reading with von Frey hairs is taken before model induction. Thus rats are acclimatized to the testing chamber and readings are taken for at least three days for the baseline before any surgery. After the surgery von Frey hair testing for any development of mechanical sensitivity is assessed. […]

Assay [11] has the same test system. Description: Sciatic Nerve Cuff model, cold plate test (paw lifts). It counts as in vivo, rat. Particulars: daily i.p. 30 mg/kg; cold plate 4±2° C.; 10-minute test period; average. The source says:
The animal will be placed into a box of approximately 12×12×12 inches. The bottom is filled with an ice-saline mixture and a metal plate is placed just on top of this mixture. […]
[…] Post-testing treatment—the feet will be wiped with a soft cloth or paper towel and the animal will be placed back in its home cage for five minutes. An allowance will be made for the time necessary to transfer to as well as adaptation to the next testing apparatus.
The method of inducing peripheral neuropathy is by implantation of a single cuff around the sciatic nerve, modified from the method described by Mosconi and Kruger (1996), where two to four cuffs were used. Rats are anaesthetized with a combination of ketamine (5 mg/100 g) and xylazine (0.5 mg/100 g), i.p. The left sciatic nerve is exposed after blunt dissection of overlying muscle and freed from surrounding tissue. A cuff made of a 2 mm segment of polyethylene (PE-90) tubing (Intramedic PE-90, Clay Adams, Division of Becton Dickinson, Parsippany, N.J.) slit longitudinally is fit around the nerve. Subsequently the muscle is sutured, and skin closed using suture clips. Antibiotic ointment (Nitrofurazone 0.2%) is applied over the wound, and 0.03 ml of the antibiotic Tribrissen 24% (trimethoprim-sulfadiazine) is injected subcutaneously. […]

Assay [12] shares this test system. Description: Sciatic Nerve Cuff model, hind leg weight bearing. Type of assay: in vivo, rat. As to the method: The method of inducing peripheral neuropathy is by implantation of a single cuff around the sciatic nerve, modified from the method described by Mosconi and Kruger (1996), where two to four cuffs were used. Rats are anaesthetized with a combination of ketamine (5 mg/100 g) and xylazine (0.5 mg/100 g), i.p. The left sciatic nerve is exposed after blunt dissection of overlying muscle and freed from surrounding tissue. A cuff made of a 2 mm segment of polyethylene (PE-90) tubing (Intramedic PE-90, Clay Adams, Division of Becton Dickinson, Parsippany, N.J.) slit longitudinally is fit around the nerve. Subsequently the muscle is sutured, and skin closed using suture clips. Antibiotic ointment (Nitrofurazone 0.2%) is applied over the wound, and 0.03 ml of the antibiotic Tribrissen 24% (trimethoprim-sulfadiazine) is injected subcutaneously. Animals are placed under a heating lamp until they recovered from the anaesthetic and then returned to their home cage.

Assay [13] relates to Rats with L5/L6 spinal nerve ligation. The experiment in a line: Chung Spinal Nerve Ligation model, tactile allodynia. It counts as in vivo, rat. Particulars: standard dosings 3, 10, and 30 mg/kg injected IP.
[14] abbreviates: human recombinant nNOS, values without parentheses.
The mark [15] stands for this setting: human recombinant eNOS, values without parentheses.

Nitric oxide synthase (neuronal, human recombinant) nNOS, sequence (P29475 whole entry): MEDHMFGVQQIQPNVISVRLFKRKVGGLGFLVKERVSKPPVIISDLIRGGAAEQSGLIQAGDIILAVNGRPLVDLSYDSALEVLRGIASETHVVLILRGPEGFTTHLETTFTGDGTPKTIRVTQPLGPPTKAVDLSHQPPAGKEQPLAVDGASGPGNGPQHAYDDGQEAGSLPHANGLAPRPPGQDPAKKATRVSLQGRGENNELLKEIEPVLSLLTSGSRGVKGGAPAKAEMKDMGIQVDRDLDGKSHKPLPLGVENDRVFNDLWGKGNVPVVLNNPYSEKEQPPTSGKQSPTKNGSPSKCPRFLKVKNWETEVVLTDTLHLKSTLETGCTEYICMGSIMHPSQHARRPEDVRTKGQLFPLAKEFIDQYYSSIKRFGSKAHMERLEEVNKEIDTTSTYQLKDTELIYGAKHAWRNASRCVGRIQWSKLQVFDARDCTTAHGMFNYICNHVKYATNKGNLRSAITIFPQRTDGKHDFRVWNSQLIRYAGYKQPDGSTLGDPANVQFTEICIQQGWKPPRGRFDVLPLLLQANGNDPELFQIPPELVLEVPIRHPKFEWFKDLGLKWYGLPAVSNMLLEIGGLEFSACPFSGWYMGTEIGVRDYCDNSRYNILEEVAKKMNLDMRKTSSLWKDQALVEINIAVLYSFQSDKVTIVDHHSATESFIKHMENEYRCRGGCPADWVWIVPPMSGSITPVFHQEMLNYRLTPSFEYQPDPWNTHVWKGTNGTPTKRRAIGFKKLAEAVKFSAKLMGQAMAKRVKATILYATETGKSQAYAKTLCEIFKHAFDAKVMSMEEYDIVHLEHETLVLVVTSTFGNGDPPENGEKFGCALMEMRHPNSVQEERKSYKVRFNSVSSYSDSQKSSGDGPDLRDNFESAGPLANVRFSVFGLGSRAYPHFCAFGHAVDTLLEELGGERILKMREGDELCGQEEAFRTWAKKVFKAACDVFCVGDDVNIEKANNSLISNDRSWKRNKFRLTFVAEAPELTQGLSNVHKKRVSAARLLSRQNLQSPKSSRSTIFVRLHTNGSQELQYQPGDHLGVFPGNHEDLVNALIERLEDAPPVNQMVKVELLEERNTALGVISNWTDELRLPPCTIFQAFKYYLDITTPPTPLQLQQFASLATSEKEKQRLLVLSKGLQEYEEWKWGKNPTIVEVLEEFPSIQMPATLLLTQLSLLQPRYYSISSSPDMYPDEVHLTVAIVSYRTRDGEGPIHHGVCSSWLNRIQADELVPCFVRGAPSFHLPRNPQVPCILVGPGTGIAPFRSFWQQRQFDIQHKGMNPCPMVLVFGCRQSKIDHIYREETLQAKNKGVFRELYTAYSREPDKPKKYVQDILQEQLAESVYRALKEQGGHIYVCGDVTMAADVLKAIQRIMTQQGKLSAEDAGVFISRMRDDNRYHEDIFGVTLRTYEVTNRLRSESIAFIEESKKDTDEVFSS
Recombinant human inducible NOS (iNOS), sequence (P35228 whole entry): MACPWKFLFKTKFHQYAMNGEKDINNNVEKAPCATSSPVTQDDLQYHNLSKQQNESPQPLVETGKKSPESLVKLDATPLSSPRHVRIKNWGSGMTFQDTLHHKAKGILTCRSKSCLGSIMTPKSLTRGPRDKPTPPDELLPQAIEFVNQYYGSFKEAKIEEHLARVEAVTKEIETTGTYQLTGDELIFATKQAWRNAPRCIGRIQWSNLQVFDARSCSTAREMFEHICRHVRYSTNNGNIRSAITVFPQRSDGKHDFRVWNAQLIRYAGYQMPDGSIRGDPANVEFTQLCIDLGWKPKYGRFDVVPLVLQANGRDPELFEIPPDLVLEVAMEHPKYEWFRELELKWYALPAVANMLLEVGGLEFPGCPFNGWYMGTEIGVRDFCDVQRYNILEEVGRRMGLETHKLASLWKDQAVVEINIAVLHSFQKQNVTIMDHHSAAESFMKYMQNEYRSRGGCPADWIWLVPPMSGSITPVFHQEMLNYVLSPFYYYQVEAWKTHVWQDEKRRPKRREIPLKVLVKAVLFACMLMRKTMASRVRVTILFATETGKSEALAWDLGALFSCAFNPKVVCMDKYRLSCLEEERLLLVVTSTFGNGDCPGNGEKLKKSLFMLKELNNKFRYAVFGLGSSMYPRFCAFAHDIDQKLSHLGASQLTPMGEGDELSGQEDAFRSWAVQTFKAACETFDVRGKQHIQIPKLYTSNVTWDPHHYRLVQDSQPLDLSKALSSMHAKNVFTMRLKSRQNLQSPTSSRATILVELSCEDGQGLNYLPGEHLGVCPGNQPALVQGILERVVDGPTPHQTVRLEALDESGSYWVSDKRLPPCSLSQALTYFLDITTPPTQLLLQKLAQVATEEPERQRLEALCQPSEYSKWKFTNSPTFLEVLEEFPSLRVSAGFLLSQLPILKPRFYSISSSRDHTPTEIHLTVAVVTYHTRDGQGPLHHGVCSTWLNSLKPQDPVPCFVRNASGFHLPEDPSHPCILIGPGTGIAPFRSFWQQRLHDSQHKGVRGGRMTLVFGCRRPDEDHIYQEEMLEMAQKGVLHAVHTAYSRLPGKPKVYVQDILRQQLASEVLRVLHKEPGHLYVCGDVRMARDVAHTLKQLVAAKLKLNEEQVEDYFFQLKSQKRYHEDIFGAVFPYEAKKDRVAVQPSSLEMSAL

Turning to `COC(=O)[C@@H](N)CCCNC(=N)N[N+](=O)[O-]` [L-NAME, N^G-Nitro-L-arginine methyl ester], the patient mortality in assay [1] is reported as 27%.

As for `C/C1=C2/[N-][C@H]([C@H](CC(N)=O)[C@@]2(C)CCC(=O)NC[C@@H](C)OP(=O)([O-])O[C@H]2[C@@H](O)[C@@H](n3cnc4cc(C)c(C)cc43)O[C@@H]2CO)[C@]2(C)N=C(/C(C)=C3N=C(/C=C4N=C1[C@@H](CCC(N)=O)C\4(C)C)[C@@H](CCC(N)=O)[C@]\3(C)CC(N)=O)[C@@H](CCC(N)=O)[C@]2(C)CC(N)=O.[Co+3].[OH-]` [hydroxycobalamin], the “patients with a reduction in the frequency of migraine attack of 50%” value with migraine patients [2] was 53%.

For `CNC(=N)NCCC[C@H](N)C(=O)O` [L-NMMA, N^G-monomethyl-L-arginine], in [3] (10 mg/kg i.v 15 minutes prior to IS), the “hindpaw allodynia after inflammatory soup (IS)” value is on record as “reverses the development of hindpaw allodynia”. Moreover, in the assay on migraine patients [4], the response rate is 67%. Besides, the survival rate in [5] is recorded as 72%.

In the case of `CN(C)CCN1CCCc2cc(NC(=N)c3cccs3)ccc21` [Example 11, N-(1-(2-(dimethylamino)ethyl)-1,2,3,4-tetrahydroquinolin-6-yl)thiophene-2-carboximidamide], the IC50 was 0.253 µM in assay [6] (setting [14]); 0.43 µM in assay [6]; 37.7 µM in assay [7] (setting [15]); 58.7 µM in assay [7]; 0.85 µM in [8] (human recombinant iNOS, values without parentheses); 0.46 µM at nNOS (Rat) (rat nNOS, read-out: nNOS IC50 (rodent data in parentheses)). The IC50 at eNOS (Rat) and at iNOS (Mouse) was more than 100 µM throughout. In [9], the “antihyperalgesic effect in the Chung model” value was “clear antihyperalgesic effect”. Besides, the “tactile hypersensitivity, pre-injection reading on the second drug-administration day” value in assay [10] (latent effect of the first dose) is listed as “sustained reversal of the tactile hypersensitivity”. Also, in assay [10] (successive days), the “tactile sensitivity on successive days of administration” value was “no further overt effect”. Moreover, the “tactile hypersensitivity (von Frey) after first injection” value in assay [10] (two and four hours after the first injection) is “reversed the tactile hypersensitivity”. For the same compound, the “paw lifts in the cold plate test” value in assay [11] is “approximately nine”. Also, the “hind paw weight placement 24 hours after the first dose” value in [12] (24 hours after the first dose) is listed as “preferential placement on the contralateral hind paw”. In addition, the “hind paw weight placement on successive days” value in assay [12] (drug administration on successive days) was “shift in hind paw weight placement toward even distribution on each day”. For the same compound, the “hind paw weight placement, first day” value in [12] (first day, two hours and four hours after drug administration) is on record as “shift in weight placement toward even distribution between the two hind paws”.

Take `CN1CCCC1CCN1CCCc2cc(NC(=N)c3cccs3)ccc21` (single isomer, unassigned) [Example 23, N-(1-(2-(1-Methylpyrrolidin-2-yl)ethyl)-1,2,3,4-tetrahydroquinolin-6-yl)thiophene-2-carboximidamide]: the “Selectivity eNOS/nNOS” value in assay [6] (human enzymes, ratio of eNOS IC50 to nNOS IC50) worked out at 157. The concentration for half-maximal inhibition (IC50) was 0.26 µM in [6] (setting [14]), 41 µM in assay [7] (setting [15]), more than 100 µM in assay [8] and more than 100 µM at eNOS (Rat). For the same compound, on nNOS (Rat) (rodent enzymes), the “Selectivity eNOS/nNOS (rodent data in parentheses)” value is “(>434)”. Moreover, the “antihyperalgesic effect in the Chung model” value in assay [9] is recorded as “clear antihyperalgesic effect”. Further, the “antiallodynic effect in the Chung model” value in assay [13] is reported as “antiallodynic effect”. In [3] (30 mg/kg p.o. 15 minutes prior to IS), the “hindpaw allodynia after inflammatory soup (IS)” value is “reverses the development of hindpaw allodynia”.

What is called IC50 is the point on the concentration scale where inhibition reaches its midpoint.
